According to patent US8263151B2, “Peracid and 2-hydroxy organic acid compositions and methods for treating produce” (Fresh Express, Incorporated, priority 2008, dated 2012):

Columns and labels:
[1] = electron-Volts; cited from earlier work
[2] = tested on: indigenous microorganisms (Aerobic Plate Counts); format: cell-based
Listeria innocua = assay: Attached cells challenge test on leaves (Example 1); format: cell-based; conditions: PAA 0 ppm
E. coli K12 = assay: as above; format: cell-based; conditions: PAA 0 ppm

## CC(=O)OO [PAA, peroxyacetic acid]
[1]
  Oxidation Capacity: 1.81 eV
[2]
  Log Reduction of Aerobic Plate Counts vs untreated: 0.7 Log cfu/g

## [O][Cl+][O-] [Chlorine Dioxide]
[1]
  Oxidation Capacity: 1.57 eV

## O=[O+][O-] [Ozone]
[1]
  Oxidation Capacity: 2.07 eV

## CC(O)C(=O)O (stereo not drawn) [LA, lactic acid]
Listeria innocua; Romaine, LA 0.6%
  log reduction of attached cells (quantity not given): 1.1
Listeria innocua; Romaine, LA 0.9%
  log reduction of attached cells (quantity not given): 1.4
Listeria innocua; Romaine, LA 1.2%
  log reduction of attached cells (quantity not given): 1.5
Listeria innocua; Spinach, LA 0.6%
  log reduction of attached cells (quantity not given): 0.1
Listeria innocua; Spinach, LA 0.9%
  log reduction of attached cells (quantity not given): 0.2
Listeria innocua; Spinach, LA 1.2%
  log reduction of attached cells (quantity not given): 0.2
E. coli K12; Romaine, LA 0.6%
  log reduction of attached cells (quantity not given): 0.24
E. coli K12; Romaine, LA 0.9%
  log reduction of attached cells (quantity not given): 0.37
E. coli K12; Spinach, LA 0.6%
  log reduction of attached cells (quantity not given): 0.09
E. coli K12; Spinach, LA 0.9%
  log reduction of attached cells (quantity not given): 0.42
E. coli K12; Spinach, LA 1.2%
  log reduction of attached cells (quantity not given): 0.81
